Measured values published in US20200022370A1, “MICROBIOCIDAL OXADIAZOLE DERIVATIVES” (SYNGENTA PARTICIPATIONS AG, priority 2016, published 2020).

Tests used:
[1] = tested on: Puccinia recondita f. Sp. Tritici; assay: Puccinia recondita f. sp. tritici / wheat / leaf disc curative (brown rust); format: in vivo; conditions: foliar, 200 ppm in the applied formulation, wheat leaf segments cv. Kanzler, compound applied 1 day after inoculation, vs untreated, 6 to 8 days after application, read-out: disease control
Method: (§1) Leaf disks or leaf segments of various plant species are cut from plants grown in a greenhouse. The cut leaf disks or segments are placed in multiwell plates (24-well format) onto water agar. The leaf disks are sprayed with a test solution before (preventative) or after (curative) inoculation. Compounds to be tested are prepared as DMSO solutions (max. 10 mg/ml) which are diluted to the appropriate concentration with 0.025% Tween20 just before spraying. The inoculated leaf disks or segments are incubated under defined conditions (temperature, relative humidity, light, etc.) according to the respective test system. A single evaluation of disease level is carried out 3 to 14 days after inoculation, depending on the pathosystem. Percent disease control relative to the untreated check leaf disks or segments is then calculated.
Example 2: Fungicidal Activity Against Puccinia recondita f. sp. tritici/Wheat/Leaf Disc Curative (Brown Rust)
Wheat leaf segments cv. Kanzler are placed on agar in multiwell plates (24-well format). The leaf segments are then inoculated with a spore suspension of the fungus. Plates were stored in darkness at 19° C. and 75% relative humidity. The Formulated test compound diluted in water was applied 1 day after inoculation. The leaf segments were incubated at 19° C. and 75% relative humidity under a light regime of 12 hours light/12 hours darkness in a climate cabinet and the activity of a compound was assessed as percent disease control compared to untreated when an appropriate level of disease damage appears in untreated check leaf segments (6 to 8 days after application).
(§2) The following compounds at 200 ppm in the applied Formulation give at least 80% disease control in this test when compared to untreated control leaf disks under the same conditions, which show extensive disease development.

[2] = tested on: Phakopsora pachyrhizi; assay: Phakopsora pachyrhizi / soybean / leaf disc preventative (Asian soybean rust); format: in vivo; conditions: foliar, 200 ppm in the applied formulation, soybean leaf disks, inoculated one day after application, vs untreated, 12 to 14 days after application, read-out: disease control
Method: as §1
Example 3: Fungicidal Activity Against Phakopsora pachyrhizi/Soybean/Leaf Disc Preventative (Asian Soybean Rust)
Soybean leaf disks are placed on water agar in multiwell plates (24-well format) and sprayed with the Formulated test compound diluted in water. One day after application leaf discs are inoculated by spraying a spore suspension on the lower leaf surface. After an incubation period in a climate cabinet of 24-36 hours in darkness at 20° C. and 75% rh leaf disc are kept at 20° C. with 12 h light/day and 75% rh. The activity of a compound is assessed as percent disease control compared to untreated when an appropriate level of disease damage appears in untreated check leaf disks (12 to 14 days after application).
as §2

[3] = tested on: Glomerella lacenarium (Colletotrichum lacenarium); assay: Glomerella lacenarium (Colletotrichum lacenarium) liquid culture / cucumber / preventative (anthracnose); format: cell-based; conditions: 20 ppm, liquid culture in PDB, 24° C., inhibition of growth measured photometrically 3 to 4 days after application, vs untreated, read-out: disease control
How it was run: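 Cryopreserved conidia in potato dextrose broth were added to test compound in a 96-well microtiter plate and incubated at 24 °C. Growth inhibition read photometrically 3–4 days after application, as percent activity versus untreated check.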

[4] = tested on: Puccinia recondita f. Sp. Tritici; assay: Puccinia recondita f. sp. tritici / wheat / leaf disc preventative (brown rust); format: in vivo; conditions: foliar, 200 ppm in the applied formulation, wheat leaf segments cv. Kanzler, inoculated 1 day after application, vs untreated, 7 to 9 days after application, read-out: disease control
How it was run: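 Segments of cv. Kanzler wheat on agar received a spray of compound formulation diluted in water and were inoculated with spores one day afterwards. Kept at 19° C and 75% rh under 12 h/12 h light; disease control relative to untreated checks rated at 7–9 days post-application.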

COCCCC(=O)N(C)c1ccc(-c2noc(C(F)(F)F)n2)cc1 [Compound 1.140, 4-methoxy-N-methyl-N-[4-[5-(trifluoromethyl)-1,2,4-oxadiazol-3-yl]phenyl]butanamide]
≥ 80%: pest or weed control at 200 ppm [1] | pest or weed control at 200 ppm [2] | inhibition of growth at 20 ppm [3]

O=C(CSc1ccccc1)Nc1ccc(-c2noc(C(F)(F)F)n2)nc1 [Compound 1.55, 2-phenylsulfanyl-N-[6-[5-(trifluoromethyl)-1,2,4-oxadiazol-3-yl]-3-pyridyl]acetamide]
≥ 80%: pest or weed control at 200 ppm [4] | pest or weed control at 200 ppm [1] | pest or weed control at 200 ppm [2] | inhibition of growth at 20 ppm [3]

O=C(Nc1ccc(-c2noc(C(F)(F)F)n2)cc1)C1(F)CC1 [Compound 1.123, 1-fluoro-N-[4-[5-(trifluoromethyl)-1,2,4-oxadiazol-3-yl]phenyl]cyclo-propanecarboxamide]
≥ 80%: pest or weed control at 200 ppm [4] | pest or weed control at 200 ppm [1] | pest or weed control at 200 ppm [2] | inhibition of growth at 20 ppm [3]

O=C(Nc1ccc(-c2noc(C(F)(F)F)n2)cc1)C1CC1F (stereo not drawn) [Compound 1.111, 2-fluoro-N-[4-[5-(trifluoromethyl)-1,2,4-oxadiazol-3-yl]phenyl]cyclo-propanecarboxamide]
≥ 80%: pest or weed control at 200 ppm [4] | pest or weed control at 200 ppm [1] | pest or weed control at 200 ppm [2] | inhibition of growth at 20 ppm [3]

CN(C(=O)C1CCOC1)c1ccc(-c2noc(C(F)(F)F)n2)cc1 (stereo not drawn) [Compound 1.135, N-methyl-N-[4-[5-(trifluoromethyl)-1,2,4-oxadiazol-3-yl]phenyl] tetrahydrofuran-3-carboxamide]
≥ 80%: pest or weed control at 200 ppm [1] | pest or weed control at 200 ppm [2] | inhibition of growth at 20 ppm [3]

CCC(C)C(=O)Nc1ccc(-c2noc(C(F)(F)F)n2)cc1 (stereo not drawn) [Compound 1.99, 2-methyl-N-[4-[5-(trifluoromethyl)-1,2,4-oxadiazol-3-yl]phenyl]butanamide]
≥ 80%: pest or weed control at 200 ppm [4] | pest or weed control at 200 ppm [1] | pest or weed control at 200 ppm [2] | inhibition of growth at 20 ppm [3]

CC(=O)Nc1ccc(-c2noc(C(F)(F)F)n2)cn1 [Compound 2.29, N-[5-[5-(trifluoromethyl)-1,2,4-oxadiazol-3-yl]-2-pyridyl]acetamide]
≥ 80%: pest or weed control at 200 ppm [4] | pest or weed control at 200 ppm [1] | pest or weed control at 200 ppm [2] | inhibition of growth at 20 ppm [3]

CN(C(=O)C1(C)COC1)c1ccc(-c2noc(C(F)(F)F)n2)cc1 [Compound 1.139, N,3-dimethyl-N-[4-[5-(trifluoromethyl)-1,2,4-oxadiazol-3-yl]phenyl]oxetane-3-carboxamide]
≥ 80%: pest or weed control at 200 ppm [4] | pest or weed control at 200 ppm [1] | pest or weed control at 200 ppm [2] | inhibition of growth at 20 ppm [3]

CN(C(=O)c1ccccc1)c1ccc(-c2noc(C(F)(F)F)n2)cc1 [Compound 2.20, N-methyl-N-[4-[5-(trifluoromethyl)-1,2,4-oxadiazol-3-yl]phenyl]benzamide]
≥ 80%: pest or weed control at 200 ppm [4] | pest or weed control at 200 ppm [1] | pest or weed control at 200 ppm [2] | inhibition of growth at 20 ppm [3]

CCCC(=O)Nc1ccc(-c2noc(C(F)(F)F)n2)cc1 [Compound 2.5, N-[4-[5-(trifluoromethyl)-1,2,4-oxadiazol-3-yl]phenyl] butanamide]
≥ 80%: pest or weed control at 200 ppm [4] | pest or weed control at 200 ppm [1] | pest or weed control at 200 ppm [2] | inhibition of growth at 20 ppm [3]

CN(C(=O)C1(C#N)CC1)c1ccc(-c2noc(C(F)(F)F)n2)cc1 [Compound 1.142, 1-cyano-N-methyl-N-[4-[5-(trifluoromethyl)-1,2,4-oxadiazol-3-yl]phenyl]cyclo-propanecarboxamide]
≥ 80%: pest or weed control at 200 ppm [4] | pest or weed control at 200 ppm [1] | pest or weed control at 200 ppm [2] | inhibition of growth at 20 ppm [3]

COC(C)C(=O)N(C)c1ccc(-c2noc(C(F)(F)F)n2)cc1 (stereo not drawn) [Compound 1.143, 2-methoxy-N-methyl-N-[4-[5-(trifluoromethyl)-1,2,4-oxadiazol-3-yl]phenyl] propanamide]
≥ 80%: pest or weed control at 200 ppm [4] | pest or weed control at 200 ppm [1] | pest or weed control at 200 ppm [2] | inhibition of growth at 20 ppm [3]

COCCC(=O)N(C)c1ccc(-c2noc(C(F)(F)F)n2)cc1 [Compound 1.136, 3-methoxy-N-methyl-N-[4-[5-(trifluoromethyl)-1,2,4-oxadiazol-3-yl]phenyl] propanamide]
≥ 80%: pest or weed control at 200 ppm [1] | pest or weed control at 200 ppm [2] | inhibition of growth at 20 ppm [3]

CN(C(=O)C1CC1)c1ccc(-c2noc(C(F)(F)F)n2)cc1 [Compound 1.128, N-methyl-N-[4-[5-(trifluoromethyl)-1,2,4-oxadiazol-3-yl]phenyl]cyclo-propanecarboxamide]
≥ 80%: pest or weed control at 200 ppm [4] | pest or weed control at 200 ppm [1] | pest or weed control at 200 ppm [2] | inhibition of growth at 20 ppm [3]

C#CCCC(=O)Nc1ccc(-c2noc(C(F)(F)F)n2)cc1 [Compound 2.4, N-[4-[5-(trifluoromethyl)-1,2,4-oxadiazol-3-yl]phenyi]pent-4-ynamide]
≥ 80%: pest or weed control at 200 ppm [4] | pest or weed control at 200 ppm [1] | pest or weed control at 200 ppm [2] | inhibition of growth at 20 ppm [3]

COCCCC(=O)Nc1ccc(-c2noc(C(F)(F)F)n2)cc1 [Compound 2.16, 4-methoxy-N-[4-[5-(trifluoromethyl)-1,2,4-oxadiazol-3-yl]phenyl] butanamide]
≥ 80%: pest or weed control at 200 ppm [4] | pest or weed control at 200 ppm [1] | pest or weed control at 200 ppm [2] | inhibition of growth at 20 ppm [3]

O=C(Nc1ccc(-c2noc(C(F)(F)F)n2)cc1)C1CC=CC1 [Compound 2.7, N-[4-[5-(trifluoromethyl)-1,2,4-oxadiazol-3-yl]phenyl]cyclopent-3-ene-1-carboxamide]
≥ 80%: pest or weed control at 200 ppm [4] | pest or weed control at 200 ppm [1] | pest or weed control at 200 ppm [2] | inhibition of growth at 20 ppm [3]

CN(C(=O)C1CCCO1)c1ccc(-c2noc(C(F)(F)F)n2)cc1 (stereo not drawn) [Compound 1.141, N-methyl-N-[4-[5-(trifluoromethyl)-1,2,4-oxadiazol-3-yl]phenyl] tetrahydrofuran-2-carboxamide]
≥ 80%: pest or weed control at 200 ppm [4] | pest or weed control at 200 ppm [1] | pest or weed control at 200 ppm [2] | inhibition of growth at 20 ppm [3]

CON(C(=O)C1CC1)c1ccc(-c2noc(C(F)(F)F)n2)cc1 [Compound 2.27, N-methoxy-N-[4-[5-(trifluoromethyl)-1,2,4-oxadiazol-3-yl]phenyl] cyclopropane-carboxamide]
≥ 80%: pest or weed control at 200 ppm [1] | pest or weed control at 200 ppm [2] | inhibition of growth at 20 ppm [3]

CC(C)C(=O)Nc1ccc(-c2noc(C(F)(F)F)n2)cc1 [Compound 1.74, 2-methyl-N-[4-[5-(trifluoromethyl)-1,2,4-oxadiazol-3-yl]phenyl] propanamide]
≥ 80%: pest or weed control at 200 ppm [4] | pest or weed control at 200 ppm [1] | pest or weed control at 200 ppm [2] | inhibition of growth at 20 ppm [3]

N#CCC(=O)Nc1ccc(-c2noc(C(F)(F)F)n2)cc1 [Compound 2.13, 2-cyano-N-[4-[5-(trifluoromethyl)-1,2,4-oxadiazol-3-yl]phenyl] acetamide]
≥ 80%: pest or weed control at 200 ppm [4] | pest or weed control at 200 ppm [1] | pest or weed control at 200 ppm [2] | inhibition of growth at 20 ppm [3]

COC(=O)C(C)(C)CC(=O)Nc1ccc(-c2noc(C(F)(F)F)n2)cc1 [Compound 1.73, methyl 2,2-dimethyl-4-oxo-4-[4-[5-(trifluoromethyl)-1,2,4-oxadiazol-3-yl]anilino]butanoate]
≥ 80%: pest or weed control at 200 ppm [4] | pest or weed control at 200 ppm [1] | pest or weed control at 200 ppm [2] | inhibition of growth at 20 ppm [3]
